In PMC12692169, “Identification of Novel TAT-I24-Related Peptides with Antiviral Activities” (International Journal of Molecular Sciences, 2025):
Like-named read-outs stand apart in the source and are kept apart here. Positions of bridges follow the written chain, without caps; N, C: chain ends. Residues, ends and D or L forms follow the SMILES beside them. No end group written: not given here.

Key:
red blood cells (RBC) [1] = assay: RBC swelling (enlarged pellet after centrifugation); conditions: peptides diluted in PBS (absence of serum), up to 20 µM, 1 h, pellet size after centrifugation
[2] = system: mouse cytomegalovirus (MCMV)/NIH/3T3 cells; conditions: 72 h
plasmid-DNA (dsDNA) = assay: Fluorescence-based dsDNA-binding assay (SYBR Gold, plasmid DNA); conditions: TAT-I24 as reference, three independent experiments in duplicates
Procedure: We also included the TAT peptide, which binds DNA [34, 35].
Peptides were incubated with plasmid-DNA in the presence of SYBR^TM Gold dye. Reduction in fluorescence indicates binding of peptides to DNA. […] Curve fitting was performed using GraphPad Prism software.
DNA binding assay was performed, as described previously [26].

Baculovirus/HEK293 = conditions: for IC50: 24 h; for fold higher IC50 value compared to TAT-I24, baculovirus-transduced HEK293 cells: ratio to TAT-I24 IC50
red blood cells (RBC) [3] = conditions: RBC 1 h 37 °C; for haemolysis: OD 450 nm of supernatant
Procedure: Figure 4 Effect of peptides on haemolysis and RBC swelling. (A,B) RBCs were isolated and treated in conical 96-well plates with peptides diluted in PBS or in 10% donor serum for one hour. OD [450 nm] was determined in the supernatants after centrifugation of the plates. Mean ± SD from two experiments in triplicates are shown. […] Dashed lines indicate background OD. (C) Swelling of RBC after treatment with dilutions of peptides in PBS for one hour and centrifugation of the plates. Red wells indicate an enlarged cell pellet due to swelling of the RBCs. Sequences of the peptides are shown at the right and are indicated in red with the TAT fusion partner indicated in blue.
Whole blood was collected from a healthy volunteer after informed consent by venipuncture into K2E K2EDTA VacuetteTM tubes (Greiner Bio-One, Kremsmünster, Austria) with 4 mL blood. The assay for haemolysis was adapted from Sæbo et al. and performed as described previously. In brief, blood was centrifuged at 1000× g for 10 min, and plasma kept for further use, followed by resuspension of red blood cells (RBC) in PBS and centrifugation for three times. RBC were seeded at a cell number of 1 × 10^7 cells/100 µL PBS per well into conical 96-well plates (ThermoFisher, Darmstadt, Germany) and incubated with 100 µL of 1:2 peptide dilutions starting from 40 µM either in PBS or 10% donor serum. Plates were incubated at 37 °C for one hour before at 1000× g for 5 min. Supernatants were then transferred to flat 96-well plates and optical density (OD) was determined at 450 nm using a Glo-Max®-Multi Detection System (Promega, Mannheim, Germany). As positive control, cells were lysed with 0.5% Triton X-100. Images from centrifuged plates were taken using a Kodak PIXPRO camera (Rochester, NY, USA).

[4] = system: DiO-labelled MCMV in NIH/3T3 cells; conditions: previous study; cited from earlier work
Excerpt: In contrast, the peptide TAT-M214, whi ...

| Compound | RBC swelling (red blood cells (RBC) [1]) | IC50 [2] | dsDNA-binding (reduction in SYBR Gold fluorescence) (plasmid-DNA (dsDNA)) | IC50 (Baculovirus/HEK293) | fold higher IC50 value compared to TAT-I24, baculovirus-transduced HEK293 cells (Baculovirus/HEK293) | haemolysis (red blood cells (RBC) [3]; 2.5 µM peptide diluted in PBS) | haemolysis (red blood cells (RBC) [3]; 5 µM peptide diluted in PBS) | haemolysis (red blood cells (RBC) [3]; 10 µM peptide diluted in PBS) | haemolysis (red blood cells (RBC) [3]; 20 µM peptide diluted in PBS, two experiments in triplicates) | haemolysis in the presence of 10% serum (red blood cells (RBC) [3]; peptide diluted in 10% donor serum) | effect on localization of DiO-labelled MCMV [4] |
| --- | --- | --- | --- | --- | --- | --- | --- | --- | --- | --- | --- |
| CC(C)C[C@H](NC(=O)[C@H](CS)NC(=O)[C@H](C)NC(=O)[C@H](Cc1ccc(O)cc1)NC(=O)[C@H](Cc1ccccc1)NC(=O)[C@H](C)NC(=O)[C@H](CC(C)C)NC(=O)[C@H](CCC(N)=O)NC(=O)[C@@H]1CCCN1C(=O)[C@@H]1CCCN1C(=O)[C@H](CCCNC(=N)N)NC(=O)[C@H](CCCNC(=N)N)NC(=O)[C@H](CCCNC(=N)N)NC(=O)[C@H](CCC(N)=O)NC(=O)[C@H](CCCNC(=N)N)NC(=O)[C@H](CCCNC(=N)N)NC(=O)[C@H](CCCCN)NC(=O)[C@H](CCCCN)NC(=O)[C@H](CCCNC(=N)N)NC(=O)CN)C(=O)N[C@@H](C)C(=O)N[C@@H](Cc1ccccc1)C(=O)N[C@@H](CS)C(=O)O [TAT-M14] (H-GRKKRRQRRRPPQLAFYACLAFC-OH; N-terminus and C-terminus assumed) | caused RBC swelling at higher concentrations | 2570 nM | bind dsDNA | 34 nM | – | – | – | – | – | – | – |
| CC(C)C[C@H](NC(=O)[C@H](CCC(N)=O)NC(=O)[C@@H]1CCCN1C(=O)[C@H](CO)NC(=O)[C@H](CS)NC(=O)[C@H](CCC(N)=O)NC(=O)[C@@H]1CCCN1C(=O)[C@@H]1CCCN1C(=O)[C@H](CCCNC(=N)N)NC(=O)[C@H](CCCNC(=N)N)NC(=O)[C@H](CCCNC(=N)N)NC(=O)[C@H](CCC(N)=O)NC(=O)[C@H](CCCNC(=N)N)NC(=O)[C@H](CCCNC(=N)N)NC(=O)[C@H](CCCCN)NC(=O)[C@H](CCCCN)NC(=O)[C@H](CCCNC(=N)N)NC(=O)CN)C(=O)N[C@@H](C)C(=O)N1CCC[C@H]1C(=O)N[C@@H](Cc1ccccc1)C(=O)N[C@@H](CS)C(=O)O [TAT-M41] (H-GRKKRRQRRRPPQCSPQLAPFC-OH; N-terminus and C-terminus assumed) | did not cause RBC swelling in the absence of serum even at 20 µM | – | less dsDNA-binding | 434 nM | approximately 20 fold | – | – | – | – | – | – |
| CC(C)C[C@H](NC(=O)[C@H](CO)NC(=O)[C@H](CC(C)C)NC(=O)[C@H](CCC(N)=O)NC(=O)[C@H](CS)NC(=O)[C@H](CCC(N)=O)NC(=O)[C@@H]1CCCN1C(=O)[C@@H]1CCCN1C(=O)[C@H](CCCNC(=N)N)NC(=O)[C@H](CCCNC(=N)N)NC(=O)[C@H](CCCNC(=N)N)NC(=O)[C@H](CCC(N)=O)NC(=O)[C@H](CCCNC(=N)N)NC(=O)[C@H](CCCNC(=N)N)NC(=O)[C@H](CCCCN)NC(=O)[C@H](CCCCN)NC(=O)[C@H](CCCNC(=N)N)NC(=O)CN)C(=O)N[C@@H](C)C(=O)N1CCC[C@H]1C(=O)N[C@@H](Cc1ccc(O)cc1)C(=O)N[C@@H](CS)C(=O)O [TAT-M42] (H-GRKKRRQRRRPPQCQLSLAPYC-OH; N-terminus and C-terminus assumed) | did not cause RBC swelling in the absence of serum even at 20 µM | – | less dsDNA-binding | 378 nM | approximately 20 fold | – | – | – | – | – | – |
| CC(C)C[C@H](NC(=O)[C@H](CO)NC(=O)[C@H](CS)NC(=O)[C@H](CCC(N)=O)NC(=O)[C@@H]1CCCN1C(=O)[C@@H]1CCCN1C(=O)[C@H](CCCNC(=N)N)NC(=O)[C@H](CCCNC(=N)N)NC(=O)[C@H](CCCNC(=N)N)NC(=O)[C@H](CCC(N)=O)NC(=O)[C@H](CCCNC(=N)N)NC(=O)[C@H](CCCNC(=N)N)NC(=O)[C@H](CCCCN)NC(=O)[C@H](CCCCN)NC(=O)[C@H](CCCNC(=N)N)NC(=O)CN)C(=O)N[C@@H](C)C(=O)N1CCC[C@H]1C(=O)N[C@@H](C)C(=O)N[C@@H](CC(N)=O)C(=O)N[C@H](C(=O)N[C@@H](CS)C(=O)O)[C@@H](C)O [TAT-M43] (H-GRKKRRQRRRPPQCSLAPANTC-OH; N-terminus and C-terminus assumed) | did not cause RBC swelling in the absence of serum even at 20 µM | – | less dsDNA-binding | 306 nM | approximately 20 fold | – | – | – | – | – | – |
| CC(C)C[C@H](NC(=O)[C@H](C)NC(=O)[C@H](Cc1ccc(O)cc1)NC(=O)[C@H](Cc1ccccc1)NC(=O)[C@H](C)NC(=O)[C@H](CC(C)C)NC(=O)[C@H](Cc1ccc(O)cc1)NC(=O)[C@@H]1CCCN1C(=O)[C@H](CCCNC(=N)N)NC(=O)[C@H](CCCNC(=N)N)NC(=O)[C@H](CCCNC(=N)N)NC(=O)[C@H](CCC(N)=O)NC(=O)[C@H](CCCNC(=N)N)NC(=O)[C@H](CCCNC(=N)N)NC(=O)[C@H](CCCCN)NC(=O)[C@H](CCCCN)NC(=O)[C@H](CCCNC(=N)N)NC(=O)CN)C(=O)N[C@@H](C)C(=O)N[C@@H](Cc1ccccc1)C(=O)N[C@@H](Cc1ccc(O)cc1)C(=O)N[C@@H](C)C(=O)N[C@@H](CS)C(=O)O [TAT-M214] (H-GRKKRRQRRRPYLAFYALAFYAC-OH) | caused RBC swelling at higher concentrations | 3670 nM | – | 25 nM | – | 14% | 29% | 37% | 43% | not in the presence of 10% serum | – |
| CLAFYACF (disulfide 1-7 (inferred)) [C22del_cyc, TAT-I24 with a cyclized I24 peptide (CLAFYACF), cyclized via the two cysteine residues; previous study] | – | – | – | – | – | – | – | – | – | – | no effect on localization of DiO-labelled MCMV |
